Experimental data taken from PubChem BioAssay (NCI).
“And” between values parts separate entries of the source, which are not always exact repeats. Equal values may be shown once.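 Test compounds were applied to cells in 96-well plates for 48 hours at 5 doses. At the GI50, growth is halved. TGI: total growth inhibition.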

System: MCF7 breast
Assay: NCI anticancer screen, dose series, 48 h

| Structure (SMILES) | GI50 | TGI |
| --- | --- | --- |
| COc1cc(-c2nc3sccn3c2-c2ccnc(NCCNS(=O)(=O)c3ccc(F)cc3)n2)ccc1F | 2 µM | > 100 µM |
| COc1cc(-c2nn(-c3cccc(NC(=O)c4ccccc4)c3)cc2-c2ccncc2)ccc1Cl | 0.344 µM | > 100 µM |
| Cc1cc(Nc2ccc(C)c(Cl)c2)n2nc(C(F)(F)F)nc2n1 | 22.7 µM | > 100 µM |
| O=C1CSC(=S)N1/N=C/c1ccc(Cl)c([N+](=O)[O-])c1 |  | 32.7 µM |
| C#Cc1cccc(Nc2nc3cc([N+](=O)[O-])ccc3nc2Nc2ccc(O)cc2)c1 | 2.2 µM | 6.11 µM |
| CN(C)CC(O)c1ccc(/C=C/c2ccc(Cl)cc2)cc1 (centres undefined) | 1.63 µM | 3.19 µM |
| CCCCCCCCCCSC(=N)N (tested in a mixture with another compound) | 2.75 µM | 10.4 µM |
| CCOc1ccc(NC2=CC(=O)C(=O)c3ccccc32)cc1 |  | 3.93 µM |
| COc1cc2c(cc1OC)-c1cc(OC)c(OC)cc1C(CN(C)C)C2 (centres undefined) | > 10 µM | > 10 µM |
| O=C1c2ccccc2C(=O)c2c(/C=C\N3CCCCC3)ccnc21 |  | 4.01 µM |
| C=C1C[C@H](O)[C@H](Br)C(C)(C)[C@@]12CCC(C)=C(Cl)C2 | 0.275 µM | 1.97 µM |
| O=C(NC1CCCCC1)NS(=O)(=O)c1ccc(N2N=C3c4ccccc4CC3C2c2ccc(Cl)cc2)cc1 (centres undefined) | 2.52 µM | 22.2 µM |
| c1ccc(-c2n(Cc3ccc4ccccc4n3)cc[n+]2Cc2ccc3ccccc3c2)cc1 | 1.21 µM | 3.43 µM |
| O=C(Nc1cccc(C(F)(F)F)c1)Nc1cccc(C(F)(F)F)c1 | 0.852 µM | 10 µM |
| CC(C)(C)[Si](C)(C)OC1[C@@H](O[Si](C)(C)C(C)(C)C)[C@@H](CNC(=O)NC(=O)C(F)(F)F)O[C@H]1n1cnc2c(NC(=O)Nc3ccccc3)ncnc21 (some centres undefined) | 2.05 µM | 8.07 µM |
| CCOC(=O)n1cc(C2=C(c3ccc(OC)c(OC)c3)COC2=O)c2ccccc21 | 0.0336 µM | > 100 µM |
| CC(=C(c1ccc(OCCN2CCCCC2)cc1)c1ccc(OCCN2CCCCC2)cc1)c1ccc(Cl)cc1 | 0.297 µM | 0.682 µM |
| C=CC(=O)Nc1cc(Nc2nccc(-c3cn(C)c4ccccc34)n2)c(OC)cc1N(C)CCN(C)C | 1.5 µM and 1.48 µM | 3.47 µM and 3.6 µM |
| CC(=O)OC1(C)N=NC2(CCCCC2)O1 (centres undefined) |  | > 100 µM |
| COc1ccc2ncnc(Nc3ccc(OCc4ccccc4)cc3)c2c1 | 7.49 µM | > 25 µM |
| O=C1c2c(F)c(F)c(F)c(F)c2C(=O)N1c1ccc(F)cc1F | 12.9 µM | > 55.9 µM |
| CC(C)[C@@H]1NC(=O)[C@]2(C)CSC(=N2)c2ccnc(c2)CNC(=O)C[C@@H](/C=C/CCS)OC1=O | 0.708 µM | > 100 µM |
| OC(c1cc(C(F)(F)F)nc2c(C(F)(F)F)cccc12)C1CCCCN1 (centres undefined) | 1.85 µM | 3.49 µM |
| C/C=C/[C@@H]1O[C@@H]2COC(=O)C2=C[C@@H]1O | 33.5 µM | > 100 µM |
| COC(=O)/C=C/c1cc(OC(C)=O)c2c(c1)[C@@H](C(=O)OC)[C@H](c1ccc(OC(C)=O)c(OC(C)=O)c1)O2 | 0.0339 µM | > 70.7 µM |

System: OVCAR-4 ovarian
Assay: NCI anticancer screen, dose series, 48 h

| Structure (SMILES) | GI50 | TGI |
| --- | --- | --- |
| CC[C@@H](c1ccc(O)c(O)c1)[C@@H](CC)c1ccc(O)c(O)c1 | 4.6 µM | 39.3 µM |
| COc1cc(-c2nc3sccn3c2-c2ccnc(NCCNS(=O)(=O)c3ccc(F)cc3)n2)ccc1F | 3.4 µM | > 100 µM |
| COc1cc(-c2nn(-c3cccc(NC(=O)c4ccccc4)c3)cc2-c2ccncc2)ccc1Cl | 1.11 µM | > 100 µM |
| Cc1cc(Nc2ccc(C)c(Cl)c2)n2nc(C(F)(F)F)nc2n1 | 25.8 µM | > 100 µM |
| O=C1CSC(=S)N1/N=C/c1ccc(Cl)c([N+](=O)[O-])c1 |  | 50.7 µM |
| C#Cc1cccc(Nc2nc3cc([N+](=O)[O-])ccc3nc2Nc2ccc(O)cc2)c1 | 1.99 µM | 5.03 µM |
| CN(C)CC(O)c1ccc(/C=C/c2ccc(Cl)cc2)cc1 (centres undefined) | 2.49 µM | 6.58 µM |
